From patent US20220370471A1, “COMPOSITION AND METHOD FOR TREATMENT OF HIPPOCAMPAL SYNAPSE DYSFUNCTION AND COGNITIVE DEFICITS IN ALZHEIMER'S DISEASE” (BOARD OF REGENTS, THE UNIVERSITY OF TEXAS SYSTEM, priority 2019, published 2022)

Tests used:
[1] = test system: hippocampal CA3-CA1 pathway; test: Long-term potentiation (fEPSP) in hippocampal slices; details: MK0677 1.5 μM, SKF81297 2 μM, alone or in combination
Procedure: For electrophysiological experiments, mice were anesthetized with isoflurane and decapitated. […] Slices were allowed to rest for 30 minutes after being transferred to the recording chamber before recordings began. Recordings of local field potentials (LFPs) were performed on an Axon Multiclamp 700B amplifier (Molecular Devices), and data were acquired and analyzed using AxoGraph X (AxoGraph Scientific). A tungsten concentric bipolar microelectrode (World Precision Instruments), and a recording glass electrode (1.5 MS2) filled with recording ACSF, were placed approximately 200 μm apart in the Schaffer collateral-commissural pathway in the CA1 region of the hippocampus. Pulses were delivered in 30 seconds intervals. Before baseline recordings commenced, input-output curves were taken, using 25-150 μA stimulation currents in 25 μA steps. Three sweeps were sampled at each stimulation intensity and averaged to represent the voltage response at each step. Recordings of baseline responses lasted for at least 40 minutes. Stimulation intensity was set to approximately 40% of the minimum intensity required to evoke the maximum response (based on the input-output curve). The stimulation intensity was kept consistent throughout the duration of the experiment. […] LTP was induced using a theta burst stimulation (TBS) protocol consisting of 10 bursts (5 pulses at 100 Hz) repeated at 5 Hz delivered two times 30 seconds apart. After LTP induction, LFPs were recorded for an additional 60 minutes. The slope of the field excitatory postsynaptic potential (fEPSP) was measured in Axograph scientific software and sweeps were averaged in bins of 5 for both the baseline and post LTP induction periods. Changes in LFPs are expressed as percentage change from the averaged baseline values.

5×FAD mice [2] = test: Amyloid plaque deposition analysis (hippocampus and cortex); type: in vivo, mouse
Procedure: Immunocytochemistry. Frozen sections were prepared as previously described. […] Nuclei were labeled with 4′,6-diamidino-2-phenylindole (DAPI, Thermo Fisher Scientific, #R37606, 1 drop/500 ul) as needed. Images were collected on a Nikon confocal microscope. Amyloid plaque deposition analysis. For amyloid plaque deposition analysis, amyloid plaque channel was subjected to “Binary” then “Define Threshold” in NIS element software. The threshold was set to include all the positive staining and the same setting was applied to all images. Volume measurement was then performed for all the plaques as well as each single plaque in both the hippocampal and cortical areas using the ROI selection option. Amyloid plaque-occupied percentage in the hippocampus or cortex and the average individual plaque volume was used to compare amyloid plaque deposition between 5×FAD saline and MK0677 treatment groups.

Ghsr1α/Drd1 complex = biological target: T1, Ghsr1α/Drd1 complex (Mus musculus, UniProt Q61616+Q99P50); test: Duolink PLA of Ghsr1α/Drd1 complex in cultured hippocampal neurons; type: cell-based; details: oligomeric Aβ42 1 μM, 24 hours; 1.5 μM MK0677, 2 μM SKF81297, or in combination
T1 construct: endogenous in cells; host or cells: primary mouse hippocampal neurons (P0-1, DIV14)
Source text: Duolink In Situ Proximity Ligation Assay (PLA). […] PLA analysis was referred to previous report (66 67). NIH Image J was used for PLA signal quantification.
Agonist treatment on primary cultured neurons. […] The exposure was followed by immunostaining to examine the effects of Ghsr1α/Drd1 co-activation on Aβ induced synaptic loss or Ghsr1α/Drd1, Aβ/Ghsr1α interaction as described in previous sections.

[3] = Mouse body weight during treatment; type: in vivo; details: MK0677 1.5 mg/kg, daily i.p.
Source text: Agonist treatment on mice.
Mice and agonist treatment.

Ghsr1α = Ghsr1α (Homo sapiens, UniProt Q92847); details: cited from earlier work
5×FAD mice [4] = test: Synaptic density in hippocampal CA1 region of treated mice; type: in vivo, mouse; details: MK0677 1.5 mg/kg, daily i.p., one month
Procedure: Immunocytochemistry. […] NIS element software was used for image analysis. “Objective Count” dialog was used for intensity measurement. […] The overlapped dots represent synapses.
Synaptic density analysis. For synaptic density analysis, vesicular glutamate transporter 1(vGlutl)- and postsynaptic density 95 (PSD95)-stained channels were saved as two binary layers, the threshold for each channel defined separately and then applied to all the images. The overlapping areas were analyzed by using the “AND” operation in the “Binary Operation” dialogs of NIS element software. Hippocampal volume was measured as described in the previous section (amyloid plaque deposition analysis). The overlapping dots represent synapses and average synapse number per selected area volume was calculated to represent synaptic density.

Chain of Ghsr1α (Q92847 whole entry): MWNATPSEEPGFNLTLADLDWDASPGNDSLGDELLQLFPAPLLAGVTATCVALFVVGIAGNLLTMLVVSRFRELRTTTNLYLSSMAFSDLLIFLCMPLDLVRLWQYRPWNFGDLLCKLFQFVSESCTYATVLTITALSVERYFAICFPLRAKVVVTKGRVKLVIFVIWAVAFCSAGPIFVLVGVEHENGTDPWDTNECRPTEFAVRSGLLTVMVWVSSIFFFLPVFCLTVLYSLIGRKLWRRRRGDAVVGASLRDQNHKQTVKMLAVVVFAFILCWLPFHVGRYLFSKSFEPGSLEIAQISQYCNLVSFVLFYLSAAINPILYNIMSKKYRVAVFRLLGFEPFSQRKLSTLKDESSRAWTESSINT
T1 sequence (Q99P50 whole entry): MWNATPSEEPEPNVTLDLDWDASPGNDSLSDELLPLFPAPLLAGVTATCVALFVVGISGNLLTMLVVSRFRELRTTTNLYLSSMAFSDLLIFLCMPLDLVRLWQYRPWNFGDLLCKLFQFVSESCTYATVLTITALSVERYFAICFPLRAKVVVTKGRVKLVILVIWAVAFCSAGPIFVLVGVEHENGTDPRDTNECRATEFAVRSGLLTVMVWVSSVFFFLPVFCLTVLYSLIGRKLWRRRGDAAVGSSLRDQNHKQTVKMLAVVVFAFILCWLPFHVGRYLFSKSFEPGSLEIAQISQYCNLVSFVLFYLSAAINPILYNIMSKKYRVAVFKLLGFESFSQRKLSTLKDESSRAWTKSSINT
T1 sequence (Q61616 whole entry): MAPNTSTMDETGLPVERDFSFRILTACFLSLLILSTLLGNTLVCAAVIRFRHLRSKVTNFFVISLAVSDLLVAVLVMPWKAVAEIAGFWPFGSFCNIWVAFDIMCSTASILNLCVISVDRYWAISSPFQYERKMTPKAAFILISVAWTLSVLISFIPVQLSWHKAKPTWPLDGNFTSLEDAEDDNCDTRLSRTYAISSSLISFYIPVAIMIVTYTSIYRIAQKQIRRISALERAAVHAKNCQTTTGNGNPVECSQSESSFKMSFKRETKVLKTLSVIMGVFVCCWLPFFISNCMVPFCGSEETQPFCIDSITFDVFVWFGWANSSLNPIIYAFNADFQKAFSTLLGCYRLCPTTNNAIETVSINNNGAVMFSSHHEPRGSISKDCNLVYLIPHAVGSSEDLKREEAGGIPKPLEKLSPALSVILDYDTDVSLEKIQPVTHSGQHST

## CC(C)(N)C(=O)N[C@H](COCc1ccccc1)C(=O)N1CCC2(CC1)CN(S(C)(=O)=O)c1ccccc12 [MK0677]
[1]; slices from 4 month-old 5×FAD mice
  stimulus-evoked hippocampal LTP in 5×FAD slices: no effect
[1]; slices from 4 month-old non-Tg mice
  hippocampal LTP in non-Tg slices: no effect
5×FAD mice [2]; 5×FAD mice, MK0677 1.5 mg/kg, daily i.p., 30 days
  size of each single Aβ plaque, hippocampus: did not significantly alter
5×FAD mice [2]; MK0677-treated 5×FAD mice
  single plaque size, neocortex: failed to show any influence
  total plaque-occupied volume, neocortex: failed to show any influence
Ghsr1α/Drd1 complex
  Ghsr1α/Drd1 complex formation: not the agonists alone
[3]
  mouse body weight: did not affect mouse body weight
Ghsr1α
  potency relative to ghrelin: higher potency than ghrelin
5×FAD mice [4]
  synaptic density, non-TG saline vs MK0677: no significant difference
  synaptic loss in CA1 region, 5×FAD mice: not significantly attenuated
